The source made the active and inactive calls. Rule as the data show it, for most assays here: actives have a measured EC50 and inactives only a lower limit.
Experiments:
[1] = test system: BJ; assay: cytotoxicity toward Ras-transformed BJeLR fibroblasts, dose response, cell-based, alamar blue fluorescence, cherrypicked samples (AID 2631); assay type: functional; conditions: Homo sapiens;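 also: confirmatory dose-response assay in RAS-dependent BJ fibroblasts engineered with TERT, LT and ST, with cytotoxicity read by fluorescence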
[2] = test system: Vero; assay: cells; assay type: functional; conditions: Chlorocebus sabaeus
[3] = molecular target: Dual specificity tyrosine-phosphorylation-regulated kinase 1A (Rattus norvegicus, UniProt Q63470); assay type: biochemical, Homo sapiens
[4] = molecular target: T1, Replicative DNA helicase DnaB (Mycobacterium tuberculosis, UniProt P9WMR3); assay: DnaB intein splicing inhibitors, dose response, biochemical, cell-free fluorescence (AID 449749); assay type: functional
T1 sequence (P9WMR3 whole entry): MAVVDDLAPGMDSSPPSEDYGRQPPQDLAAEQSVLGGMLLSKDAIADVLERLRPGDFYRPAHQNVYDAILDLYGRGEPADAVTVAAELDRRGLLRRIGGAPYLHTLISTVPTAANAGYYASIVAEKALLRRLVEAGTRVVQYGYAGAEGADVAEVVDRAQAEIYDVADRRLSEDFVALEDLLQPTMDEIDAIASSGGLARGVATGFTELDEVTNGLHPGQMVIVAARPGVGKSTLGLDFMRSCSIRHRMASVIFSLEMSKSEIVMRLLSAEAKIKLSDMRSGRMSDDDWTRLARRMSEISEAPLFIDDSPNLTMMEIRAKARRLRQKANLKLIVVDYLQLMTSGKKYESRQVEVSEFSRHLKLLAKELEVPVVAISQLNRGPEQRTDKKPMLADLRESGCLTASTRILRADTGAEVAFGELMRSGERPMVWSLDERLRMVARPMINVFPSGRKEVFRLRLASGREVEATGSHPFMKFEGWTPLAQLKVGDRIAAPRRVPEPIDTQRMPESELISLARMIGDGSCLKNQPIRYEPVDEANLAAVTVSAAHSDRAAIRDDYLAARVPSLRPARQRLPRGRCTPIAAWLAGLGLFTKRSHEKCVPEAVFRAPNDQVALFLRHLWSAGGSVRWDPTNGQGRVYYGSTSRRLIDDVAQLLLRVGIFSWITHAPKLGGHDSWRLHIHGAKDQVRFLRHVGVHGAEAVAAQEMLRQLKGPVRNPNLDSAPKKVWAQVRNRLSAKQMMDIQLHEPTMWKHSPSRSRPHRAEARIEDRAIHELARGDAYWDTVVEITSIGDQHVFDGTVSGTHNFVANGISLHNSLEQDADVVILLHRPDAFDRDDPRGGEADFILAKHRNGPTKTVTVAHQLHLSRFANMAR

[5] = molecular target: Large T antigen (Simian virus 40, UniProt P03070); assay type: functional, Betapolyomavirus macacae;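 also: Confirmatory-stage PubChem screen for compounds that inhibit SV40 T antigen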
[6] = molecular target: T2, Protein RecA (Mycobacterium tuberculosis, UniProt P9WHJ3); assay: Fluorescence Cell-Free Homogeneous Dose Retest to Identify Inhibitors of RecA-Intein Splicing Activity. [Related pubchem assays (depositor defined):AID2097, AID2223, AID489010, AID492950]; assay type: functional
T2 sequence (P9WHJ3 whole entry): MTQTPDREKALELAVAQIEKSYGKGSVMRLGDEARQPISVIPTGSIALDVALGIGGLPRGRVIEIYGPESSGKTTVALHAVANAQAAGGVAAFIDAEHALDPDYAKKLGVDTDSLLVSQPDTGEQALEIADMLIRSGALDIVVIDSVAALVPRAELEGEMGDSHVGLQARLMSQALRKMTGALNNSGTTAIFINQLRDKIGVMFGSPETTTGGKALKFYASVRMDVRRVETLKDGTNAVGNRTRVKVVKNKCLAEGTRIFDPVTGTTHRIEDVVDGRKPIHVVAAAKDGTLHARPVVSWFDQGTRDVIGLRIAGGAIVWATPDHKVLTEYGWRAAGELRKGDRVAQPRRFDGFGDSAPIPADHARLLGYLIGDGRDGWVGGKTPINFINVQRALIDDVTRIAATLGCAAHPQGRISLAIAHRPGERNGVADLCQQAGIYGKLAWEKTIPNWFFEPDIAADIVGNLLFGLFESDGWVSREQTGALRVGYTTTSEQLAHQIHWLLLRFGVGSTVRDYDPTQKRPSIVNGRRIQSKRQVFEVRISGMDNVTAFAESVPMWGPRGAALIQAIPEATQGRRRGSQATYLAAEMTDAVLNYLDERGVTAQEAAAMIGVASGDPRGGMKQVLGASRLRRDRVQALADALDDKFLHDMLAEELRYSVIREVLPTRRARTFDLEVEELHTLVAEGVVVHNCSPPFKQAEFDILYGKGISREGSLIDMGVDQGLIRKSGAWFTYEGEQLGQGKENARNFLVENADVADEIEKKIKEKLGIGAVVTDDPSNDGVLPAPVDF

[7] = molecular target: T3, Endoribonuclease toxin MazF (Escherichia coli K-12, UniProt P0AE70); assay: MazF toxin RNase activators, dose response, biochemical, fluorescence, single-stranded RNA substrate, uHTS hits (AID 588481); assay type: functional
T3 sequence (P0AE70 whole entry): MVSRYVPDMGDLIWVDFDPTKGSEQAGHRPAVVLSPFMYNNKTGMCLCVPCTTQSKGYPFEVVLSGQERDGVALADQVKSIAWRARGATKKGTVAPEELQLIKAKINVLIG

[8] = molecular target: T3, Endoribonuclease toxin MazF; assay: fluorescent RNA oligo signal without MazF, dose response, counter-screen for MazEF activator project, biochemical, fluorescence, single-stranded RNase substrate (AID 588502); assay type: functional
[9] = cytotoxicity toward DRD oncogenic fibroblasts, dose response, cell-based, non-viral oncogenic, luminescence (AID 1934); assay type: functional; conditions: Homo sapiens
[10] = test system: BJ; assay: cells; assay type: functional, cell-based, Homo sapiens; conditions: Homo sapiens, BJ
[11] = test system: BJ; assay: cytotoxicity toward BJ-TERT fibroblasts, dose response, cell-based, RAS-independent, luminescence (AID 1933); assay type: functional; conditions: Homo sapiens
[12] = test system: BJ; assay: cytotoxicity toward BJ-TERT-LT-ST fibroblasts, dose response, cell-based, RAS-independent, luminescence (AID 1935); assay type: functional; conditions: Homo sapiens;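 also: BJ fibroblasts immortalized with TERT plus LT and ST oncogenes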
[13] = test system: Escherichia coli; assay: microbe, parasite or virus in culture
[14] = test system: Streptococcus; assay: Group A Streptococcus viability loss, dose response, counter-screen for streptokinase expression inhibitor project, luminescence, BacTiterGlo (AID 1915); assay type: functional, organism-based;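 also: potency for reduction of bacterial viability or growth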
[15] = molecular target: T4, Streptokinase A (Streptococcus pyogenes serotype M1, UniProt P10520); assay: S. pyogenes streptokinase expression inhibitors, potency, dose response, plasminogen activation absorbance, OD405 (AID 1914); assay type: functional, Streptococcus pyogenes M1 GAS;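 also: secreted streptokinase activity via plasminogen activation per viability signal from cell pellet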
T4 sequence (P10520 whole entry): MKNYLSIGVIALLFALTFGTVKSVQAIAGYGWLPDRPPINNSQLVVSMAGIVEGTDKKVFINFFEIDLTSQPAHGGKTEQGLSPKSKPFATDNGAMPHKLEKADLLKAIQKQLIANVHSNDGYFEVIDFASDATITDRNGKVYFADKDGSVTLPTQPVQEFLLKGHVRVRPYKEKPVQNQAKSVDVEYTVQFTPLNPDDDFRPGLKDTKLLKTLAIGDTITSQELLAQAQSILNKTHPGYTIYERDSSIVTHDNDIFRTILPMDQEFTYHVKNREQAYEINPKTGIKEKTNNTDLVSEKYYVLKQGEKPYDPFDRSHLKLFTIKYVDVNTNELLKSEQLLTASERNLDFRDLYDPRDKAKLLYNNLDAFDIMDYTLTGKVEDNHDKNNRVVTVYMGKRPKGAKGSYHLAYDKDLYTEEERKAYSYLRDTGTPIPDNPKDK

[16] = NIH-3T3 fibroblast cytotoxicity, dose response, cytotoxicity control, cell-based, fluorescence, Alamar Blue, secondary assay (AID 2327); assay type: functional;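 also: NIH-3T3 mouse fibroblasts cultured with fluconazole at 8 µg/mL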
[17] = test system: Streptococcus sp. 'group A'; assay: growth inhibition of control SK(-) GAS strain, dose response, counter-screen for streptokinase expression inhibitor project, luminescence, kanamycin, BacTiterGlo, confirmation (AID 1900); assay type: functional, organism-based
[18] = molecular target: T5, Serine/threonine-protein phosphatase (Candida dubliniensis (strain CD36 / CBS 7987 / NCPF 3949 / NRRLY-17841) (Yeast), UniProt B9W6M3); assay: calcineurin pathway inhibitors in yeast reporter, dose response, S. cerevisiae, CDRE-lacZ, luminescence, secondary (AID 2388); assay type: functional, cell-based;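 also: yeast reporter cells carrying a calcineurin-responsive lacZ construct stimulated with calcium chloride; luminescent beta-galactosidase reporter signal in whole cells rather than isolated phosphatase activity; potency for inhibition where a drop in reporter signal means calcineurin blockade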
T5 sequence (B9W6M3 whole entry): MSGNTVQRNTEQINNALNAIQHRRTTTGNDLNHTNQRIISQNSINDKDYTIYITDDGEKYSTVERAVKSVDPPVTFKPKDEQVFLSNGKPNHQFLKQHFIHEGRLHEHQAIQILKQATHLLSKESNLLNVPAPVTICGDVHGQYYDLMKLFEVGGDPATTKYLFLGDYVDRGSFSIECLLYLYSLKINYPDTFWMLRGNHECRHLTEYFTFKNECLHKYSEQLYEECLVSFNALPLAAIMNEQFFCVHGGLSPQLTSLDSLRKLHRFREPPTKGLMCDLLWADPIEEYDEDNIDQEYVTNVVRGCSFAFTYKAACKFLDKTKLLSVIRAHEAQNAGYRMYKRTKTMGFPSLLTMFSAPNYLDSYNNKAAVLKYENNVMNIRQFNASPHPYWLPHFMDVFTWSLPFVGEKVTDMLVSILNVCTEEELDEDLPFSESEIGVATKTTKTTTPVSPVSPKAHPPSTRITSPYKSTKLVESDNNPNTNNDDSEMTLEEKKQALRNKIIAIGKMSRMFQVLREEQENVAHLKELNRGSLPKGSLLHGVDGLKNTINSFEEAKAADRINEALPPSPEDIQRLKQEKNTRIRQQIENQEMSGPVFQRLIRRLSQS

[19] = C. albicans growth with fluconazole, confirmation, fluorescence, retest (AID 2467); assay type: functional, cell-based
[20] = molecular target: ATP-dependent molecular chaperone HSP82 (Candida albicans (strain WO-1) (Yeast), UniProt C4YTQ8); assay: loss of DOC-induced GRE-beta-galactosidase reporter signal, dose response, Hsp90 inhibitor project, S. cerevisiae, luminescence (AID 2400); assay type: functional, cell-based;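 also: beta-galactosidase luminescence from glucocorticoid response element reporter as proxy for Hsp90 function; inhibitor potency where signal loss means Hsp90 inhibition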
[21] = cytotoxicity toward NIH3T3 fibroblasts, dose response, counter-screen, cell-based, ATP luminescence, mouse fibroblasts (AID 2010); assay type: functional;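 also: cells exposed to compound for about 90 hours before reading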
[22] = inhibitors of intracellular T. cruzi replication, confirmation, NIH3T3 host cells, beta-gal luminescence (AID 2044); assay type: functional, cell-based;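 also: intracellular parasites grown in NIH/3T3 mouse fibroblasts as host cells; luminescent beta-galactosidase reporter signal from transgenic T. cruzi replicating inside host cells; inhibitors lower the luminescence signal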
[23] = test system: Vero; assay: cells; assay type: functional, cell-based; conditions: Chlorocebus sabaeus
[24] = cells
[25] = HEp-2 cell cytotoxicity, dose response, cytotoxicity control for RSV inhibitor project, HTS (AID 2410); assay type: functional; conditions: human respiratory syncytial virus
[26] = molecular target: FAD-linked sulfhydryl oxidase ALR (Homo sapiens, UniProt P55789); assay: inhibitors of human ALR sulfhydryl oxidase, dose response, biochemical, H2O2 detection, luminescence, cherry-pick (AID 493248)
[27] = test system: HEK293; assay: inhibitors of LMP1-driven NF-kB reporter, dose response, cell-based, HEK293, luciferase, cherry-pick (AID 588343); assay type: functional; conditions: Homo sapiens

Sequence of ATP-dependent molecular chaperone HSP82 (C4YTQ8 whole entry): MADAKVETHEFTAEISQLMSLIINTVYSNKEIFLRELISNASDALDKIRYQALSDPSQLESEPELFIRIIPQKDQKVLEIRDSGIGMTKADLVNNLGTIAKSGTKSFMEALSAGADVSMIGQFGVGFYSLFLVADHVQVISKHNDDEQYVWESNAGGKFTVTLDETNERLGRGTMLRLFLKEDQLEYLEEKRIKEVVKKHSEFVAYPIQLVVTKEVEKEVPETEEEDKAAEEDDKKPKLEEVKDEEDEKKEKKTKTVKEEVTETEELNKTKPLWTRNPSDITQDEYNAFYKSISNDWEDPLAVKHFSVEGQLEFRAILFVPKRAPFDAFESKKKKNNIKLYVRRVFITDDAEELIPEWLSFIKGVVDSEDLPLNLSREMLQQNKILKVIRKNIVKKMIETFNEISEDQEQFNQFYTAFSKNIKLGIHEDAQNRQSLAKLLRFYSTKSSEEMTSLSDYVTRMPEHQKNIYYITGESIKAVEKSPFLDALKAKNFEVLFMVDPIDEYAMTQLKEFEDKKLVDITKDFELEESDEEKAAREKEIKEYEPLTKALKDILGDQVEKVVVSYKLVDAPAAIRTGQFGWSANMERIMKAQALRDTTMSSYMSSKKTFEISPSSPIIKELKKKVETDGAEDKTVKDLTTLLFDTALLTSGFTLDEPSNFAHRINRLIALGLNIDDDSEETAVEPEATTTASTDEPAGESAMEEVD
Sequence of FAD-linked sulfhydryl oxidase ALR (P55789 whole entry): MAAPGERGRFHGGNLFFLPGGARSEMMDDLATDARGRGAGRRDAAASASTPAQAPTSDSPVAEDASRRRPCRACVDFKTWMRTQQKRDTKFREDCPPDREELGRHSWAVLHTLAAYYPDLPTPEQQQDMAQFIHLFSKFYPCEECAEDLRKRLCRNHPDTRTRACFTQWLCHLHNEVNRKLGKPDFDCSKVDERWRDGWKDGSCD
Sequence of Large T antigen (P03070 whole entry): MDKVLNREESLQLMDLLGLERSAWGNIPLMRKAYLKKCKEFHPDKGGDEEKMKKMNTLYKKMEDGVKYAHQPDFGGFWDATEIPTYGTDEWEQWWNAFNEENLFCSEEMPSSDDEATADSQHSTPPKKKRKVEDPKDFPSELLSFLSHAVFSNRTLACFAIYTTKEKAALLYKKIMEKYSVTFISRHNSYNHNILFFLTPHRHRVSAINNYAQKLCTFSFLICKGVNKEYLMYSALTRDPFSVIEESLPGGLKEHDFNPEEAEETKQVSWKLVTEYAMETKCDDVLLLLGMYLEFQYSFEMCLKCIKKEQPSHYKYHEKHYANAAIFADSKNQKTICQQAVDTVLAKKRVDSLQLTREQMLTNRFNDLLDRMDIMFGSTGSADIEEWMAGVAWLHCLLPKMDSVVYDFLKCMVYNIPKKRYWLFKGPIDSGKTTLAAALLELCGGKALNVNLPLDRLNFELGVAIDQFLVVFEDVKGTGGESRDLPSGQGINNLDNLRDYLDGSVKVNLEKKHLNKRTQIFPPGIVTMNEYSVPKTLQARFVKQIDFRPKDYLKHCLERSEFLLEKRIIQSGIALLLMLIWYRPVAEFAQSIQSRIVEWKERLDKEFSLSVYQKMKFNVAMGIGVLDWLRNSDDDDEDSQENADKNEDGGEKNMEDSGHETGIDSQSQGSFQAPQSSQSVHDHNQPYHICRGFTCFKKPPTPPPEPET

Compound: COCCCNC1=NN=C(c2cc(C)n(Cc3ccco3)c2C)CS1
- EC50 [1]: 0.201 µM (active)
- CC50 [2]: 2.27 µM (active)

Compound: COc1cc(C=C2C(=O)c3ccccc3C2=O)ccc1O
- AC50 [3]: 0.585 µM (active)
- AC50 [4]: > 380 µM (inactive)
- IC50 [5]: 15.1 µM (active)
- EC50 [6]: 22.9 µM (active)

Compound: O=C(COC(=O)c1ccccc1C(=O)N1CCN(c2ccccc2)CC1)NCc1ccccc1
- EC50 [7]: > 99 µM (inactive)
- EC50 [8]: > 99 µM (inactive)

Compound: C[C@@H]1C=CC(=O)O[C@@H]1c1ccc(C(F)(F)F)cc1
- EC50 [1]: 0.409 µM (active)
- EC50 [9]: 2.27 µM (active)
- EC50 [10]: 5.53 µM (active)
- EC50 [11]: 49.6 µM (active)
- EC50 [12]: 12.4 µM (active)

Compound: CC(=O)N1CC[C+]([N-]NS(=O)(=O)c2cccc([N+](=O)[O-])c2)CC1
- EC50 [7]: > 99 µM (inactive)
- EC50 [8]: 23.9 µM (inactive)

Compound: Cc1ccccc1NC(=O)CCN1CCN(CCO)CC1
- AC50 [13]: 23.6 µM (active)

Compound: O=C(Nc1nnc(-c2ccco2)o1)c1ccc(Cl)cc1
- EC50 [14]: 15.6 µM (active)
- EC50 [15]: > 150 µM (not active)
- EC50 [16]: > 150 µM (inactive)
- EC50 [17]: 0.983 µM (active)
- EC50 [18]: > 180 µM (inactive)
- EC50 [19]: 0.9 µM (active)
- EC50 [20]: > 150 µM (inactive)

Compound: O=C1NC(=O)/C(=C\c2ccc(Br)o2)S1
- EC50 [21]: > 60 µM (not active)
- AC50 [3]: 4.62 µM (active)
- EC50 [16]: 87.3 µM (inconclusive)
- EC50 [22]: 21.7 µM (active)
- EC50 [18]: > 180 µM (inactive)
- EC50 [19]: 1.3 µM (active)
- EC50 [20]: > 150 µM (inactive)

Compound: CCOC(=O)C1=C(NC(=S)NC(=O)c2ccccc2)c2ccccc2CC1C(C)C (stereo not drawn)
- IC50 [23]: 9.18 µM (active)
- EC50 [9]: 60.6 µM (active)
- EC50 [10]: 54.1 µM (inconclusive)
- IC50 [24]: 3.58 µM (active)
- CC50 [2]: > 25 µM (active)
- EC50 [11]: > 150 µM (not active)
- EC50 [12]: > 150 µM (not active)
- CC50 [25]: 9.61 µM (active)

Compound: Cc1cc(C(C#N)c2ccccc2F)n2ncnc2n1 (stereo not drawn)
- AC50 [26]: 34.3 µM (active)
- EC50 [16]: > 150 µM (inconclusive)
- EC50 [18]: > 180 µM (inactive)
- EC50 [19]: 1.28 µM (active)
- AC50 [13]: 36.4 µM (active)
- EC50 [20]: > 160 µM (inactive)

Compound: Cc1ccc(S(=O)(=O)N2CCN(CC(=O)NC(=O)NCc3ccccc3)CC2)cc1C
- EC50 [7]: > 99 µM (inactive)
- EC50 [8]: > 99 µM (inactive)

Compound: c1ccc2c(-c3ccncc3)c[nH]c2c1
- AC50 [3]: 2.41 µM (active)
- AC50 [27]: 144 µM (active)
